From patent publication US7884120B2, “2,4,5-trisubstituted imidazoles and their use as anti-microbial agents” (Lorus Therapeutics Inc., priority 2002, dated 2011)
In brackets after ≈: the same amount, converted by molar mass. Where two headings read alike, the source gives them in different places.

Key:
[1] = tested on: multi-drug resistant Staphylococcus aureus (CMRSA-1B); experiment: Bactericidal effect against MRSA (CFU plating on TSA); format: cell-based; details: overnight with compound, plated on TSA, CFU count (FIG. 1)
Procedure: Serial dilutions of liquid cultures were incubated with the compounds at 37° C. overnight and then plated on Tryptic Soy Agar (TSA) plates. After incubation for 17 hours at 37° C., the number of live bacteria was calculated from the number of colonies grown per milliliter of culture and expressed as colony-forming units (CFU).

MRSA-1B387 = experiment: In vivo inhibition of MRSA, acute infection in immunosuppressed CB17-SCID mice; parameters: species or system Staphylococcus aureus; details: 5×10^6 MRSA-1B387 in 5% mucin, 50 mg/kg I.P. immediately and 3 hours after inoculation
Procedure: Triaryl-imidazole compounds were tested in vivo for antibacterial activity against MRSA in a model of acute infection using immunosuppressed mice. Suspensions of 400 μL containing 5×10^6 MRSA-1B387 bacteria in 5% mucin were injected into groups of 5-10 female, 8-14 weeks CB17-SCID mice. Under these conditions bacterial infection produced 80-100% lethality in less than 48 hours. Each group of inoculated mice was treated with 50 mg/kg of the respective compound intraperitoneally (I.P.) immediately and 3 hours after bacterial inoculation.

[2] = tested on: Methicillin-Resistant Staphylococcus aureus (MRSA), CMRSA-1B; experiment: MIC by sequential macrodilution (tube) broth method against MRSA; format: cell-based; parameters: key: (+): Positive visual bacterial growth; (−): Negative visual bacterial growth; details: 37° C. overnight
Procedure: (Nat. Committee for Clinical Laboratory Standards. Document M7-A5 2000, 20; 1-25). Bacterial suspensions containing 5×10^5 colony-forming units (CFU) were incubated with serial two-fold dilutions of each drug at 37° C. overnight, and growth was monitored visually. The range of MIC values among the triaryl-imidazole derivatives was 12.5-50 μg/ml.

[3] = tested on: S. aureus, MRSA 1A-218, 1A-318, 1B-374, 1B-315, 1B-185, 1B387 and MSSA ATCC-6538, ATCC-29213; experiment: MIC by standard microdilution method against S. aureus (MRSA and MSSA strains); format: cell-based; details: Staphylococcus aureus
Procedure: (§1) A standard microdilution method (NCCLS, 2000; Document M7-A5) was used to determine the minimum inhibitory concentrations (MICs) against S. aureus, methicillin-resistant strains (MRSA); 1A-218, 1A-318, 1B-374, 1B-315, 1B-185, 1B387 (Simor et al. 1999 Can Commun Dis Rep; 25:105-108) and methicillin-sensitive strains (MSSA); ATCC-6538 and ATCC-29213. The MICs of some compounds were also determined against other Gram-positive bacteria: Enterococcus faecium (ATCC 51559), Enterococcus faecalis (ATCC-51299, ATCC-29212) and Staphylococcus epidermidis (ATCC-35983).
(§2) Mueller-Hinton broth (MHB) is recommended as the medium of choice for susceptibility testing of commonly isolated, rapidly growing aerobic organisms such as the Gram-positive bacteria included in this study. A “cation-adjusted Mueller-Hinton broth” (Ca-MHB) was prepared by first preparing standard MHB from a dehydrated base as recommended by the manufacturer.
(§3) Single colonies from fresh agar plates of the different bacterial cultures were sub-cultured overnight in 3 ml of Tryptic soy broth (TSB) at 37° C. with shaking at 250 RPM. After 18-20 hours of incubation, the absorbance at λ=600 nm (OD600) were determined for each culture and adjusted to a final OD600=0.1 (4.2×10^7 cfu/ml). Bacterial suspensions were then diluted 1:200 in sterile Ca-MHB for the in vitro susceptibility test, with each well of the microtitre plate containing approximately 2×10^5 cfu/ml.
(§4) Stock solutions of the different test compounds were prepared at concentrations of 1,280 μg/ml, 640 μg/ml, or 320 μg/ml in 50% DMSO (dimethyl sulfoxide). Serial two-fold dilutions were then prepared in 50% DMSO (the working concentrations were 1:10 of the stock concentrations in 100 μl culture suspensions). The filled microtitre plates were sealed in plastic bags and incubated at 35° C. for 24 hr in an ambient air incubator with shaking at 250 RPM. MIC values were determined as the lowest concentration where complete inhibition of the visible bacterial growth was observed by the unaided eye and confirmed by the measurement of the optical density (OD600).

[4] = tested on: Candida albicans (ATCC 24433); experiment: In vitro anti-fungal activity, microdilution against Candida albicans; format: cell-based; details: for MIC: ATCC24433, C. albicans ATCC 24433
Procedure: A microdilution method was used to determine the anti-fungal activity of different test compounds against Candida albicans (ATCC 24433) at 25 μg/ml. RPMI-1640 broth is recommended as the medium of choice for susceptibility testing of C. albicans (NCCLS, 2002; Document M27-A2) and was used in this study. The broth was buffered to pH 7.0 and then sterilized using a 250 ml vacuum driven disposable 0.45 um filtration system.
C. albicans was sub-cultured from a −80° C. stock onto Sabouraud dextrose agar and incubated for 24-48 hrs at 37° C. The fungi inoculum was prepared by picking five colonies of ˜1 mm in diameter from 24-48 hr old cultures. The colonies were then suspended in 5 ml of sterile normal saline (8.5 g/L NaCl; 0.85% saline) diluted 1:50 and further diluted 1:20 with medium to obtain two-fold inoculum (1-5×10^3 cfu/ml). […] The microtitre plates were then sealed in plastic bags and incubated at 35° C. for 24-48 hrs in an ambient air incubator with shaking at 250 RPM.
Inhibition of visible growth of C. albicans in the microtitre plate wells was assessed by the unaided eye and confirmed by OD600 reading. […] The MIC values of compounds with significant activity are also included.

MRSA 1B-387 = experiment: In vivo anti-bacterial activity, ICR mice inoculated I.P. with MRSA, oral treatment; details: Staphylococcus aureus
Procedure: For in vivo studies, groups of 5-10 female ICR mice (6-7 weeks) were inoculated intraperitonially with 3-8×10^7 CFU MRSA 1B-387 per mouse in 400 μl of 5% mucin. The test compounds at concentrations of 50 or 100 mg/kg were administered orally immediately after the bacterial inoculation and again 3 hours later. The selected dosages were administered twice daily throughout the experiment. The efficacy of the treatment was evaluated by comparison of mortality between the experimental and control groups (Table 5).

[5] = tested on: Enterococcus faecalis (ATCC-51299); experiment: MIC by microdilution against Enterococcus faecalis ATCC-51299; format: cell-based; details: unit not given in Table 4 (Table 3, same method: μg/ml)
Procedure: as §1, §2, §3, §4

[6] = tested on: Enterococcus faecium (ATCC-51559); experiment: MIC by microdilution against Enterococcus faecium; format: cell-based; details: unit not given in Table 4 (Table 3, same method: μg/ml)
Procedure: as §1, §2, §3, §4

[7] = ATCC24433, 24 h, read-out: Inhibition (%) after 24 h
[8] = ATCC24433, 48 h, read-out: Inhibition (%) after 48 h
[9] = against all 8 strains of S. aureus tested except where indicated, microdilution, Ca-MHB, 35° C., 24 hr, read-out: MIC
[10] = ATCC24433, C. albicans ATCC 24433, compound 25 μg/ml, 24 h, read-out: Inhibition (%) after 24 h
[11] = ATCC24433, C. albicans ATCC 24433, compound 25 μg/ml, 48 h, read-out: Inhibition (%) after 48 h

| SMILES | responders at 100 mg/kg (MRSA 1B-387) | responders at 100 mg/kg (MRSA 1B-387; read-out: Survival %) | MIC [3, 9] | inhibition at 25 µg/mL [4, 10] | inhibition at 25 µg/mL [4, 11] | further results |
| --- | --- | --- | --- | --- | --- | --- |
| O=C(O)c1ccc(-c2nc(-c3ccc(Sc4ccccc4)cc3)c(-c3ccccc3)[nH]2)cc1 [Compound 1] |  |  |  |  |  | bactericidal or bacteriostatic effect at the corresponding MIC [1]: bactericidal effect; Survival (%) (MRSA-1B387): 40%; visual bacterial growth ([2]; Conc. 3.12 μg/ml): +; visual bacterial growth ([2]; Conc. 6.25 μg/ml): +; visual bacterial growth ([2]; Conc. 12.50 μg/ml): −; visual bacterial growth ([2]; Conc. 25.00 μg/ml): −; visual bacterial growth ([2]; Conc. 50.00 μg/ml): −; visual bacterial growth ([2]; Conc. 100.00 μg/ml): − |
| c1ccc2c(-c3nc4c5ccccc5c5ccccc5c4[nH]3)c[nH]c2c1 [Compound 46] | 40% | 40% |  |  |  | MIC ([3]; 24 h): 4 µg/mL (≈ 12 µM); inhibition at 25 µg/mL [4, 7]: 33%; inhibition at 25 µg/mL [4, 8]: 0% |
| Cc1[nH]c2ccccc2c1-c1nc(-c2ccccc2)c(-c2ccc([N+](=O)[O-])cc2)[nH]1 [Compound 33] | 0% | 0% | 4 to 8 µg/mL (≈ 10.1 to 20.3 µM) | 0% | 0% |  |
| Cc1[nH]c2ccccc2c1-c1nc2c3ccccc3c3ccccc3c2[nH]1 [Compound 44] | 60% | 60% |  |  |  | MIC ([3]; 24 h): 8 µg/mL (≈ 23 µM); inhibition at 25 µg/mL [4, 7]: 0%; inhibition at 25 µg/mL [4, 8]: 0% |
| Cc1[nH]c2ccccc2c1-c1nc(-c2ccc(Br)cc2)c(-c2ccc(Br)cc2)[nH]1 [Compound 13] | 20% | 20% | 2 to 4 µg/mL (≈ 3.94 to 7.89 µM) | 0% | 0% | MIC [5]: 32; MIC [6]: 32 |
| Cc1[nH]c2ccccc2c1-c1nc(-c2ccccc2)c(-c2ccc(F)cc2)[nH]1 [Compound 35] | 4% | 40% | 8 µg/mL (≈ 21.8 µM) | 100% | 73% |  |
| Clc1ccc(-c2[nH]c(-c3c[nH]c4ccc(Br)cc34)nc2-c2ccccc2)cc1 [Compound 32] | 40% | 40% | 8 µg/mL (≈ 17.8 µM) | 93% | 100% | MIC [4]: 8 µg/mL (≈ 17.8 µM) |
| Brc1ccc2[nH]cc(-c3nc(-c4ccccc4)c(-c4ccccc4)[nH]3)c2c1 [Compound 6] | 40% | 40% | 4 µg/mL (≈ 9.65 µM) | 0% | 0% |  |
| Cc1[nH]c2ccccc2c1-c1nc(-c2ccccc2)c(-c2ccc(Br)cc2)[nH]1 [Compound 42] | 0% | 0% | 4 µg/mL (≈ 9.34 µM) | 77% | 43% |  |
| Fc1ccc(-c2nc(-c3c[nH]c4ccc(Br)cc34)[nH]c2-c2ccc(F)cc2)cc1 [Compound 8] | 20% | 20% | 2 µg/mL (≈ 4.44 µM) | 100% | 100% | MIC [4]: 8 µg/mL (≈ 17.8 µM) |
| COc1ccc(-c2nc(-c3c[nH]c4ccc(Br)cc34)[nH]c2-c2ccc(OC)cc2)cc1 [Compound 10] | 100% | 100% | 4 µg/mL (≈ 8.43 µM) | 0% | 0% |  |
| Fc1ccc(-c2[nH]c(-c3c[nH]c4ccc(Br)cc34)nc2-c2ccccc2)cc1 [Compound 36] | 80% | 80% | 2 µg/mL (≈ 4.63 µM) | 86% | 97% | MIC [4]: 16 µg/mL (≈ 37 µM) |
| O=C(O)c1ccc(-c2nc(-c3ccc(Br)cc3)c(-c3ccccc3Br)[nH]2)cc1 [Compound 3] |  |  |  |  |  | bactericidal or bacteriostatic effect at the corresponding MIC [1]: bacteriostatic effect; Survival (%) (MRSA-1B387; 50 mg/kg): 15%; visual bacterial growth ([2]; Conc. 3.12 μg/ml): +; visual bacterial growth ([2]; Conc. 6.25 μg/ml): +; visual bacterial growth ([2]; Conc. 12.50 μg/ml): +; visual bacterial growth ([2]; Conc. 25.00 μg/ml): −; visual bacterial growth ([2]; Conc. 50.00 μg/ml): −; visual bacterial growth ([2]; Conc. 100.00 μg/ml): − |
| Brc1ccc(-c2[nH]c(-c3c[nH]c4ccc(Br)cc34)nc2-c2ccccc2)cc1 [Compound 43] | 80% | 80% | 4 µg/mL (≈ 8.11 µM) | 87% | 59% | MIC [4]: 8 µg/mL (≈ 16.2 µM) |
| O=C(O)c1ccc(-c2nc(-c3ccc(Br)cc3)c(-c3ccccc3Br)[nH]2)cc1 [Compound 4] |  |  |  |  |  | bactericidal or bacteriostatic effect at the corresponding MIC [1]: bacteriostatic effect; Survival (%) (MRSA-1B387; 50 mg/kg): 50%; visual bacterial growth ([2]; Conc. 3.12 μg/ml): +; visual bacterial growth ([2]; Conc. 6.25 μg/ml): +; visual bacterial growth ([2]; Conc. 12.50 μg/ml): +; visual bacterial growth ([2]; Conc. 25.00 μg/ml): +; visual bacterial growth ([2]; Conc. 50.00 μg/ml): −; visual bacterial growth ([2]; Conc. 100.00 μg/ml): − |
| CC(=O)n1c(-c2c(C)n(C(C)=O)c3ccccc23)nc(-c2ccccc2)c1-c1ccccc1 [Compound 5] | 20% | 20% | > 128 µg/mL | 0% | 0% |  |
